Assay results published in PubChem BioAssay AID248 (DTP/NCI, 2004).
Values joined by “and” are separate entries in the source; they are usually repeats but may differ in a detail not shown here. Equal values may be shown once. Toxic doses and inconclusive results are not listed.

Test system: L1210 leukemia ip in BDF1 mice, survival T/C
Assay: NCI In Vivo Anticancer Drug Screen. Data for tumor model L1210 Leukemia (intraperitoneal) in B6D2F1 (BDF1) mice
Conditions: endpoint: mean survival time, higher = longer survival
Method in brief: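 In this screen, tumor-bearing mice given compound are compared to those given vehicle, and their survival values are reported as a treated-to-control quotient.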

[1] = dose: 50.0 mg/kg/injection, schedule: Q01DX001 (ip), vehicle: saline
[2] = dose: 6.25 mg/kg/injection, schedule: Q01DX009 (ip), vehicle: saline
[3] = dose: 12.5 mg/kg/injection, schedule: Q01DX009 (ip), vehicle: saline
[4] = dose: 25.0 mg/kg/injection, schedule: Q01DX009 (ip), vehicle: saline
[5] = dose: 50.0 mg/kg/injection, schedule: Q01DX009 (ip), vehicle: saline
[6] = dose: 12.5 mg/kg/injection, schedule: Q04DX003 (ip), vehicle: saline
[7] = dose: 25.0 mg/kg/injection, schedule: Q04DX003 (ip), vehicle: saline
[8] = dose: 75.0 mg/kg/injection, schedule: Q04DX003 (ip), vehicle: saline

O=S1(=O)C=CC1
T/C [1]: 115 % of control

COc1cc(Br)c(CC(=O)O)cc1OC
T/C (dose: 100.0 mg/kg/injection, schedule: Q04DX003 (ip), vehicle: acetone): 96 % of control | T/C (dose: 200.0 mg/kg/injection, schedule: Q04DX003 (ip), vehicle: acetone): 95 % of control | T/C (dose: 400.0 mg/kg/injection, schedule: Q04DX003 (ip), vehicle: acetone): 93 % of control

O=C1CCC(=O)N1SC(Cl)(Cl)Cl
T/C (dose: 7.5 mg/kg/injection, schedule: Q01DX009 (ip), vehicle: saline): 101 % of control | T/C (dose: 15.0 mg/kg/injection, schedule: Q01DX009 (ip), vehicle: saline): 101 % of control | T/C (dose: 30.0 mg/kg/injection, schedule: Q01DX009 (ip), vehicle: saline): 106 % of control | T/C (dose: 45.0 mg/kg/injection, schedule: Q01DX009 (ip), vehicle: saline): 99 % of control | T/C (dose: 70.0 mg/kg/injection, schedule: Q01DX009 (ip), vehicle: saline): 92 % of control | T/C (dose: 100.0 mg/kg/injection, schedule: Q01DX001 (ip), vehicle: other): 103 % of control | T/C (dose: 100.0 mg/kg/injection, schedule: Q04DX002 (ip), vehicle: saline with Tween-80): 87 % of control | T/C (dose: 105.0 mg/kg/injection, schedule: Q01DX009 (ip), vehicle: saline): 89 % of control | T/C (dose: 200.0 mg/kg/injection, schedule: Q01DX001 (ip), vehicle: other): 95 % of control | T/C (dose: 240.0 mg/kg/injection, schedule: Q01DX009 (ip), vehicle: saline): 88 % of control | T/C (dose: 300.0 mg/kg/injection, schedule: Q01DX001 (ip), vehicle: other): 98 % of control | T/C (dose: 360.0 mg/kg/injection, schedule: Q01DX009 (ip), vehicle: saline): 86 % of control

Cn1c(N)nc2nc[nH]c2c1=O
T/C (dose: 18.7 mg/kg/injection, schedule: Q01DX Z (ip), vehicle: methylcellulose (MC)): 95 % of control | T/C (dose: 37.5 mg/kg/injection, schedule: Q01DX Z (ip), vehicle: methylcellulose (MC)): 89 % of control

CON(C)CC(Cl)c1ccccc1 (stereo not given)
T/C [2]: 100 % of control | T/C (dose: 6.25 mg/kg/injection, schedule: Q04DX003 (ip), vehicle: saline with Tween-80): 98 % of control | T/C [3]: 100 % of control | T/C (dose: 12.5 mg/kg/injection, schedule: Q04DX003 (ip), vehicle: saline with Tween-80): 96 % of control | T/C [4]: 92 % of control | T/C (dose: 25.0 mg/kg/injection, schedule: Q04DX003 (ip), vehicle: saline with Tween-80): 104 % of control | T/C [5]: 92 % of control | T/C (dose: 50.0 mg/kg/injection, schedule: Q04DX003 (ip), vehicle: saline with Tween-80): 96 % of control and 98 % of control

CCCCP(=O)(CCCC)Oc1ccccc1F
T/C (dose: 100.0 mg/kg/injection, schedule: Q01DX009 (ip), vehicle: saline with Tween-80): 90 % of control | T/C (dose: 200.0 mg/kg/injection, schedule: Q01DX009 (ip), vehicle: saline with Tween-80): 86 % of control

CCCC1(CN2c3ccccc3Sc3ccccc32)CCN(CC)C1 (stereo not given)
T/C (dose: 9.37 mg/kg/injection, schedule: Q01DX009 (ip), vehicle: saline): 101 % of control | T/C (dose: 12.5 mg/kg/injection, schedule: Q01DX001 (ip), vehicle: saline): 97 % of control and 100 % of control | T/C [6]: 103 % of control | T/C (dose: 18.75 mg/kg/injection, schedule: Q01DX009 (ip), vehicle: saline): 95 % of control | T/C (dose: 25.0 mg/kg/injection, schedule: Q01DX001 (ip), vehicle: saline): 95 % of control | T/C [7]: 103 % of control | T/C (dose: 37.5 mg/kg/injection, schedule: Q01DX009 (ip), vehicle: saline): 92 % of control | T/C [1]: 95 % of control and 87 % of control | T/C (dose: 50.0 mg/kg/injection, schedule: Q04DX003 (ip), vehicle: saline): 97 % of control | T/C [8]: 103 % of control

CC(=O)OC1COC(SSC2OCC(OC(C)=O)C(OC(C)=O)C2OC(C)=O)C(OC(C)=O)C1OC(C)=O (stereo not given)
T/C (dose: 100.0 mg/kg/injection, schedule: Q01DX001 (ip), vehicle: saline): 89 % of control | T/C (dose: 200.0 mg/kg/injection, schedule: Q01DX001 (ip), vehicle: saline): 89 % of control | T/C (dose: 400.0 mg/kg/injection, schedule: Q01DX001 (ip), vehicle: saline): 101 % of control

CCCCC(C)C(C#N)(NC(C)=O)C(=O)OCC (stereo not given)
T/C [8]: 109 % of control | T/C (dose: 150.0 mg/kg/injection, schedule: Q04DX003 (ip), vehicle: saline): 98 % of control | T/C (dose: 300.0 mg/kg/injection, schedule: Q04DX003 (ip), vehicle: saline): 91 % of control

CCN(CC)CCOC(=O)CSC1C2CC3C(C2)C31 (stereo not given)
T/C [5]: 94 % of control | T/C (dose: 100.0 mg/kg/injection, schedule: Q01DX009 (ip), vehicle: saline): 90 % of control | T/C (dose: 200.0 mg/kg/injection, schedule: Q01DX009 (ip), vehicle: saline): 123 % of control

COc1ccc(OC)c(CC=O)c1
T/C (dose: 100.0 mg/kg/injection, schedule: Q04DX003 (ip), vehicle: alcohol): 97 % of control | T/C (dose: 200.0 mg/kg/injection, schedule: Q04DX003 (ip), vehicle: alcohol): 101 % of control | T/C (dose: 400.0 mg/kg/injection, schedule: Q04DX003 (ip), vehicle: alcohol): 103 % of control

CC[C@]12CN3CCc4c([nH]c5ccccc45)[C@@](C(=O)OC)(c4cc5c(cc4OC)N(C)[C@H]4[C@@](O)(C(=O)OC)[C@H](OC(C)=O)[C@]6(CC)C=CCN7CC[C@]54[C@@H]76)CC(C3)[C@H]1O2 (stereo not given in full)
T/C (dose: 0.37 mg/kg/injection, schedule: Q01DX009 (ip), vehicle: saline): 108 % of control | T/C (dose: 0.75 mg/kg/injection, schedule: Q01DX009 (ip), vehicle: Klucel (hydroxypropylcellulose) (HPC)): 100 % of control | T/C (dose: 1.5 mg/kg/injection, schedule: Q01DX002 (ip), vehicle: saline): 108 % of control | T/C (dose: 1.5 mg/kg/injection, schedule: Q01DX009 (ip), vehicle: Klucel (hydroxypropylcellulose) (HPC)): 105 % of control | T/C (dose: 1.5 mg/kg/injection, schedule: Q01DX009 (ip), vehicle: saline): 97 % of control and 108 % of control and 114 % of control | T/C (dose: 3.0 mg/kg/injection, schedule: Q01DX002 (ip), vehicle: saline): 115 % of control | T/C (dose: 3.0 mg/kg/injection, schedule: Q01DX009 (ip), vehicle: Klucel (hydroxypropylcellulose) (HPC)): 110 % of control | T/C (dose: 6.0 mg/kg/injection, schedule: Q01DX002 (ip), vehicle: saline): 117 % of control | T/C (dose: 6.0 mg/kg/injection, schedule: Q01DX009 (ip), vehicle: Klucel (hydroxypropylcellulose) (HPC)): 107 % of control | T/C (dose: 12.0 mg/kg/injection, schedule: Q01DX009 (ip), vehicle: Klucel (hydroxypropylcellulose) (HPC)): 115 % of control | T/C (dose: 12.0 mg/kg/injection, schedule: Q01DX009 (ip), vehicle: saline): 95 % of control | T/C (dose: 16.5 mg/kg/injection, schedule: Q04DX003 (ip), vehicle: saline with Tween-80): 106 % of control | T/C (dose: 37.5 mg/kg/injection, schedule: Q04DX003 (ip), vehicle: saline): 94 % of control

CCC(C)[Se][Se]C(C)CC (stereo not given)
T/C [2]: 94 % of control | T/C (dose: 6.25 mg/kg/injection, schedule: Q04DX003 (ip), vehicle: saline): 97 % of control | T/C [3]: 98 % of control | T/C [6]: 103 % of control | T/C [4]: 91 % of control | T/C [7]: 103 % of control | T/C (dose: 100.0 mg/kg/injection, schedule: Q04DX003 (ip), vehicle: saline): 89 % of control

CNC(=N)c1ccc(NC(=N)c2ccc(NC(=O)Nc3ccc(NC(=O)Nc4ccc(C(=N)Nc5ccc(C(=N)NC)cc5)cc4)cc3)cc2)cc1
T/C (dose: 0.5 mg/kg/injection, schedule: Q01DX015 (ip), vehicle: water): 103 % of control | T/C (dose: 1.0 mg/kg/injection, schedule: Q01DX015 (ip), vehicle: water): 116 % of control | T/C (dose: 2.0 mg/kg/injection, schedule: Q01DX015 (ip), vehicle: water): 152 % of control | T/C (dose: 5.0 mg/kg/injection, schedule: Q01DX Z (ip), vehicle: water): 156 % of control | T/C (dose: 7.5 mg/kg/injection, schedule: Q01DX Z (ip), vehicle: water): 180 % of control | T/C (dose: 10.0 mg/kg/injection, schedule: Q01DX Z (ip), vehicle: water): 150 % of control | T/C (dose: 15.0 mg/kg/injection, schedule: Q01DX Z (ip), vehicle: water): 161 % of control | T/C (dose: 20.0 mg/kg/injection, schedule: Q01DX Z (ip), vehicle: water): 104 % of control | T/C (dose: 30.0 mg/kg/injection, schedule: Q01DX Z (ip), vehicle: water): 87 % of control | T/C (dose: 35.7 mg/kg/injection, schedule: Q01DX Z (ip), vehicle: water): 101 % of control
